The results in this text go back to BindingDB's records for doi:10.7270/Q2TX3CTT (Broad Institute, 2010).

Structures can show the parent of a compound that is named as a salt.

Chain of Glycogen synthase kinase-3 beta (P49841 whole entry): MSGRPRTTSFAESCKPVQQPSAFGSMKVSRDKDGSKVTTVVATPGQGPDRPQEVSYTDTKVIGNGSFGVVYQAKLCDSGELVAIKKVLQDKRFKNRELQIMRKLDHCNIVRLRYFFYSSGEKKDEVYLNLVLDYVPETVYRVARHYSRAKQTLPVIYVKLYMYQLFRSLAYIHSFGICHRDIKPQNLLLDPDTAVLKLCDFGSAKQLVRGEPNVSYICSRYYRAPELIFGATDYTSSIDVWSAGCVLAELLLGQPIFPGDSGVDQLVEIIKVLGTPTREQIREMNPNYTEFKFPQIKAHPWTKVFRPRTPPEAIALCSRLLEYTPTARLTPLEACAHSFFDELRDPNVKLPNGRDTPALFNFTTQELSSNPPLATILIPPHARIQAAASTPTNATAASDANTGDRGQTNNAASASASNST

This experiment addresses Glycogen synthase kinase-3 beta (Homo sapiens, UniProt P49841). The experiment can be described thus: concentration-response blocking of human GSK3B – biochemical, luminescence, cell-free homogeneous, retest, dose response (AID 434954).
A word on the EC50: it is the concentration at which the effect is half-maximal. Read a high EC50 as a need for much substance. Regarding `CC(C)Sc1nc2c(c(=O)[nH]1)C(c1cccs1)C1C(=O)CC(C)(C)CC1=N2` (stereo unspecified) [8,8-dimethyl-2-propan-2-ylsulfanyl-5-thiophen-2-yl-5,7,9,10-tetrahydro-1H-pyrimido[4,5-b]quinoline-4,6-dione], the EC50 was above 300 µM.
As to `CCCC1=Nc2ncnn2C(c2ccco2)C1C(=O)OCC` (stereo unspecified) [ethyl 7-(furan-2-yl)-5-propyl-1,7-dihydro-[1,2,4]triazolo[1,5-a]pyrimidine-6-carboxylate], the EC50 came out at 17.4 µM.
Next, `CCOC(=O)c1nnn(-c2nonc2N)c1CSc1nnc(N)s1` [MLS000624994]: above 300 µM; `CCN1CCN(c2nc(Nc3cc(OC)ccc3OC)nc(Nc3cc(OC)ccc3OC)n2)CC1` [SMR000439674]: above 300 µM; `CC(C)Nc1nc(-c2ccncc2)nc(-c2ccc(Cl)cc2)c1C#N` [SMR000333194]: above 300 µM.
The result for `O=C(Nc1nccs1)C1CCCN1S(=O)(=O)c1cccc2cccnc12` (stereo unspecified) [SMR000096012] reads 30.2 µM; that for `Cc1cccc(Nc2nc(NCc3ccco3)nc(N)c2[N+](=O)[O-])c1` [2-N-(furan-2-ylmethyl)-4-N-(3-methylphenyl)-5-nitropyrimidine-2,4,6-triamine], 64.4 µM; that for `O=C1Nc2cc(C(=O)N3CCC(N4CCCCC4)CC3)ccc2S/C1=C\c1ccccc1` [SMR000635251], 16.9 µM.
`N=C(Cc1nc2ccccc2s1)NO` [2-(1,3-benzothiazol-2-yl)-N'-oxidanyl-ethanimidamide] yielded an EC50 above 300 µM.
The result for `Cc1[nH]nc2c1C(c1ccc(O)cc1)C1C(=O)CC(C)(C)CC1=N2` (stereo unspecified) reads 2.06 µM.
Molecule `COc1cc(/C=N/NC(=O)c2ccc3ccccc3c2)ccc1Oc1ccc([N+](=O)[O-])cn1` [N-[[3-methoxy-4-(5-nitropyridin-2-yl)oxy-phenyl]methylideneamino]naphthalene-2-carboxamide] showed an EC50 above 300 µM.
Next, `N#CCCSc1nc(N2CCOCC2)c2c(c1C#N)CCCC2` [3-(2-cyanoethylthio)-1-(4-morpholinyl)-5,6,7,8-tetrahydroisoquinoline-4-carbonitrile]: 9.29 µM.
Next, `Cc1ccccc1-c1nc(CN2CCC(C(=O)N3CCN(c4ccccn4)CC3)CC2)c(C)o1` [[1-[[5-methyl-2-(2-methylphenyl)-4-oxazolyl]methyl]-4-piperidinyl]-[4-(2-pyridinyl)-1-piperazinyl]methanone]: above 300 µM.
Next, `O=C(CCc1ccccc1)Nc1ncc([N+](=O)[O-])s1`: above 300 µM.
The molecule `CCCn1nc(NC(=O)c2cccs2)c2cc3ccc(C)cc3nc21` [N-(7-methyl-1-propylpyrazolo[3,4-b]quinolin-3-yl)thiophene-2-carboxamide] had an EC50 above 300 µM.
Take `O=C(c1cc(COc2ccc(F)cc2F)on1)N1CCCC(c2ccccc2)C1` (stereo unspecified) [[5-[[2,4-bis(fluoranyl)phenoxy]methyl]-1,2-oxazol-3-yl]-(3-phenylpiperidin-1-yl)methanone]: the EC50 was above 300 µM.
In turn, `Fc1ccccc1Cn1c2[n+](c3ccc(C(F)(F)F)cc31)CCCCC2` gave an EC50 above 300 µM.
`O=C(NCC(c1ccco1)N1CCN(c2ccc(F)cc2)CC1)c1cccs1` (stereo unspecified) [SMR000808277]: the EC50 was above 300 µM.
As for `COc1ccc(C(=O)c2coc3ccc(O)c(CN(C)C)c23)cc1` [MLS000115878], the EC50 was above 300 µM.
Next, `Oc1ccc(CN=Nc2ncnc3nc[nH]c23)cc1` [SMR000320358]: above 300 µM; `CCOC(=O)c1cnc2ccc(OC)cc2c1Nc1ccc2c(c1)OCCO2` [SMR000196288]: 16.7 µM.
Regarding `Cc1ccc(S(=O)(=O)NN=Cc2cn(-c3ccccc3)nc2-c2ccccc2)cc1` [N-[(1,3-diphenylpyrazol-4-yl)methylideneamino]-4-methylbenzenesulfonamide], the EC50 is above 300 µM.
Next, `CCC(C)Nc1nc(N)c([N+](=O)[O-])c(NC2CCCCC2)n1` (stereo unspecified) [SMR000540397]: 2.39 µM; `Cn1nc(-c2ccc(Cl)cc2)nc2c(=O)n(C)c(=O)nc1-2` [3-(4-Chloro-phenyl)-1,6-dimethyl-1H-pyrimido[5,4-e][1,2,4]triazine-5,7-dione]: 24 µM.
The result for `CCCN(CCC)Cc1c(C(=O)NN=Cc2c[nH]c3ccccc23)nnn1-c1nonc1N` reads above 300 µM; that for `COc1cccc(/C=C2/Sc3ccc(C(=O)NCCCN4CCCC4)cc3NC2=O)c1`, 2.82 µM; that for `C=CCN=C(NC#N)SC` [methyl N-cyano-N'-prop-2-enyl-carbamimidothioate], above 300 µM.
As for `COc1ccc2occ(C(=O)c3coc4ccc(O)c(CN(C)C)c34)c2c1` [[4-[(dimethylamino)methyl]-5-oxidanyl-1-benzofuran-3-yl]-(5-methoxy-1-benzofuran-3-yl)methanone;hydrochloride], the EC50 was 1.99 µM.
The molecule `Clc1ccc2[nH]c3c(c2c1)CCc1c[nH]nc1-3` [MLS000108710] displayed a half-maximal effective concentration (EC50) of 25.3 µM.
The result for `CCOc1ccc2c(c1)C(NC(C)=O)C(=O)N2CCN1CCOCC1` (stereo unspecified) [N-[5-ethoxy-1-(2-morpholin-4-ylethyl)-2-oxo-3H-indol-3-yl]acetamide;hydrochloride] reads above 300 µM; that for `O=C(CCS(=O)(=O)c1ccc(Br)cc1)Nc1ccc(Cl)cc1F` [3-(4-bromophenyl)sulfonyl-N-(4-chloranyl-2-fluoranyl-phenyl)propanamide], above 300 µM.
Next, `COc1ccc(-c2nn(CCC(=O)O)cc2/C=C/C(=O)O)cc1[N+](=O)[O-]` [3-[4-[(E)-2-carboxyethenyl]-3-(4-methoxy-3-nitrophenyl)pyrazol-1-yl]propanoic acid]: above 300 µM; `COC(=O)c1nnn(-c2nonc2N)c1CSc1nnc(C)s1` [MLS000728193]: 45.7 µM.
Next, `C=CCNc1nc(N)c([N+](=O)[O-])c(NCCO)n1` [2-(2-Allylamino-6-amino-5-nitro-pyrimidin-4-ylamino)-ethanol]: 46.5 µM.
The molecule `CCN(CC)Cc1c(O)ccc2c(=O)c(-c3ccc4c(c3)OCCO4)coc12` [MLS000552107] gave an EC50 above 300 µM.
Next, `N#CCCN1CCCc2cc(/N=N/c3ccc(C(F)(F)F)cc3)ccc21`: above 300 µM; `Cc1nc(N2CCOCC2)nc(N2CCCCC2C)c1[N+](=O)[O-]` (stereo unspecified) [MLS001012395]: above 300 µM.
Consider `CSc1nc2c(c(=O)[nH]1)C(c1ccccc1)C1C(=O)CC(C)(C)CC1=N2` (stereo unspecified) [8,8-dimethyl-2-(methylthio)-5-phenyl-5,8,9,10-tetrahydropyrimido[4,5-b]quinoline-4,6(3H,7H)-dione], for which the EC50 is above 300 µM.
Next, `Cn1nc2c3ccccc3n(Cc3ccc(F)cc3)c2nc1=S`: above 300 µM; `CN(C)/C=C/C(=O)c1cnc(-c2cccc(Cl)c2)s1` [MLS000706958]: above 300 µM; `CN(c1ncnc(N)c1[N+](=O)[O-])C1CCS(=O)(=O)C1` (stereo unspecified) [SMR000347974]: 28.2 µM.
Take `CCn1c(SCC(=O)Nc2ccc(NC(C)=O)cc2)nnc1C1CC1` [N-(4-acetamidophenyl)-2-[(5-cyclopropyl-4-ethyl-1,2,4-triazol-3-yl)sulfanyl]ethanamide]: the EC50 was above 300 µM.
Next, `CCOC(=O)C1C(C)=Nc2ncnn2C1c1cc(OC)ccc1OC` (stereo unspecified) [MLS000112815]: above 300 µM; `Cc1cnc(C(=O)OCC(=O)N2c3ccccc3CC2C)cn1` (stereo unspecified) [[2-(2-methyl-2,3-dihydroindol-1-yl)-2-oxoethyl] 5-methylpyrazine-2-carboxylate]: above 300 µM.
For `O=C1CN=C(c2ccccc2)c2c(sc3c2CCCC3)N1`, the response was half-maximal at 27.8 µM (EC50).
`CCCN1CCN(CCCNC(=O)c2ccc3c(c2)NC(=O)c2ccccc2S3)CC1` [MLS001110989] showed an EC50 above 300 µM.
Next, `CC1CCCCN1c1ncnc(N)c1[N+](=O)[O-]` (stereo unspecified) [6-(2-methylpiperidin-1-yl)-5-nitro-pyrimidin-4-amine]: 8.18 µM; `Cc1ccc(-n2nc3c(N4CCC(C(=O)N5CCCCCC5)CC4)nnc(C)c3c2C)cc1` [MLS001028811]: above 300 µM; `CCOC(=O)c1cnc2ccc(Cl)cc2c1Nc1ccc(S(=O)(=O)Nc2ncccn2)cc1` [ethyl 6-chloro-4-[4-(pyrimidin-2-ylsulfamoyl)anilino]quinoline-3-carboxylate]: 108 µM.
On to `O=c1cc(-c2ccccc2Cl)oc2ccc([N+](=O)[O-])c(O)c12` [2-(2-chlorophenyl)-5-hydroxy-6-nitrochromen-4-one], for which the EC50 was above 300 µM.
The molecule `CCCCOC(=O)C1C(C)=Nc2ncnn2C1c1cccc(OC)c1OC` (stereo unspecified) [butyl 7-(2,3-dimethoxyphenyl)-5-methyl-4,7-dihydro[1,2,4]triazolo[1,5-a]pyrimidine-6-carboxylate] yielded a half-maximal effective concentration (EC50) of 4.25 µM. This counts as single-digit micromolar.
Next, `CCOc1ccccc1Nc1cc(C)nc2ccc(C)cc12` [SMR000473096]: above 300 µM; `Cc1oc2c(CN(C)C)c(O)ccc2c(=O)c1-c1cscn1`: above 300 µM; `CC(C)(C)c1csc(NC(=O)c2cccnc2)n1` [SMR000496644]: above 300 µM.
Next, `Cc1[nH]c2ccccc2c1Cc1nnc(SCC(N)=O)o1` [2-[[5-[(2-methyl-1H-indol-3-yl)methyl]-1,3,4-oxadiazol-2-yl]sulfanyl]acetamide]: above 300 µM; `CCOC(=O)CSc1ccc2nnc(-c3cccnc3)n2n1` [SMR000018940]: above 300 µM; `CCSc1nc(N)nc(-c2cccs2)c1C#N` [2-amino-4-ethylsulfanyl-6-thiophen-2-ylpyrimidine-5-carbonitrile]: above 300 µM.
The result for `O=C(CCc1nnc(CCCCc2ccccc2)o1)NCc1cccc(F)c1` [N-(3-fluorobenzyl)-3-[5-(4-phenylbutyl)-1,3,4-oxadiazol-2-yl]propanamide] reads above 300 µM; that for `CC(=O)Nc1ccc(S(=O)(=O)NCc2ccc(C)n2C)cc1` [N-[4-[(1,5-dimethylpyrrol-2-yl)methylsulfamoyl]phenyl]ethanamide], above 300 µM; that for `CC(=O)Oc1cccc(N2C(=O)c3ccc(C(=O)Nc4cccnc4)cc3C2=O)c1` [SMR000306801], above 300 µM.
Take `O=C(CN1C(=O)CCC1=O)Nc1cccc(NC(=O)CN2C(=O)CCC2=O)c1` [2-(2,5-dioxo-1-pyrrolidinyl)-N-[3-[[2-(2,5-dioxo-1-pyrrolidinyl)-1-oxoethyl]amino]phenyl]acetamide]: the EC50 is above 300 µM.
